# Assay results published in the supplement of paper PMC10307832.
# Tests used:
# Test in all cases: relative viability (nuclei count vs DMSO), 5 days (fraction); higher = more cells survive
# Kobe2602 + Bortezomib = compound: C1=CC(=CC=C1NC(=S)NNC2=C(C=C(C=C2[N+](=O)[O-])C(F)(F)F)[N+](=O)[O-])F [Kobe2602] + CC(C)C[C@H](NC(=O)[C@H](Cc1ccccc1)NC(=O)c1cnccn1)B(O)O [Bortezomib] (partner 0.002 µM)
# Outline: (§1)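 Dosing by pin tool came one day after lung cancer cell lines were seeded in 1536-well plates, using either one drug or a fixed anchor-drug dose plus five library-drug doses (not always all listed) in √10 steps. After 5 days, nuclei were counted on 4× images. Relative viability is treated-well nuclei count divided by vehicle-well nuclei count, and values are medians of duplicate plates.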
# Zosuquidar + Pemetrexed = compound: O[C@@H](COc1cccc2ncccc12)CN1CCN([C@@H]2c3ccccc3[C@@H]3[C@H](c4ccccc42)C3(F)F)CC1 [Zosuquidar] + Nc1nc2[nH]cc(CCc3ccc(C(=O)N[C@@H](CCC(=O)O)C(=O)O)cc3)c2c(=O)[nH]1 [Pemetrexed] (partner 0.2 µM)
# Outline: as §1
# [1] = compound: COc1cc2nccc(Oc3ccc(NC(=O)C4(C(=O)Nc5ccc(F)cc5)CC4)cc3)c2cc1OC [Cabozantinib] + CC(=O)c1c(C)c2cnc(Nc3ccc(N4CCNCC4)cn3)nc2n(C2CCCC2)c1=O [Palbociclib] (partner 0.5 µM)
# Outline: as §1
# Kobe2602 + Linsitinib = compound: C1=CC(=CC=C1NC(=S)NNC2=C(C=C(C=C2[N+](=O)[O-])C(F)(F)F)[N+](=O)[O-])F [Kobe2602] + C[C@]1(O)C[C@@H](c2nc(-c3ccc4ccc(-c5ccccc5)nc4c3)c3c(N)nccn32)C1 [Linsitinib] (partner 1 µM)
# Outline: as §1
Cell Line,relative viability (Kobe2602 + Bortezomib; first compound 0.2 µM),relative viability (Kobe2602 + Bortezomib; first compound 0.6325 µM),relative viability (Kobe2602 + Bortezomib; first compound 2 µM),relative viability (Kobe2602 + Bortezomib; first compound 6.325 µM),relative viability (Kobe2602 + Bortezomib; first compound 20 µM),relative viability (Zosuquidar + Pemetrexed; first compound 0.01 µM),relative viability (Zosuquidar + Pemetrexed; first compound 0.03162 µM),relative viability (Zosuquidar + Pemetrexed; first compound 0.1 µM),relative viability (Zosuquidar + Pemetrexed; first compound 0.3162 µM),relative viability (Zosuquidar + Pemetrexed; first compound 1 µM),relative viability ([1]; first compound 0.02 µM),relative viability ([1]; first compound 0.06325 µM),relative viability ([1]; first compound 0.2 µM),relative viability ([1]; first compound 0.6325 µM),relative viability ([1]; first compound 2 µM),relative viability (Kobe2602 + Linsitinib; first compound 0.2 µM),relative viability (Kobe2602 + Linsitinib; first compound 0.6325 µM),relative viability (Kobe2602 + Linsitinib; first compound 2 µM),relative viability (Kobe2602 + Linsitinib; first compound 6.325 µM),relative viability (Kobe2602 + Linsitinib; first compound 20 µM)
NCI-H1437,0.595,0.48,0.562,0.392,0.451,0.331,0.311,0.303,0.296,0.337,0.312,0.339,0.296,0.344,0.302,0.974,0.995,1.03,0.998,0.872
EKVX,1.13,1.08,0.994,1.02,1.1,0.373,0.392,,0.435,0.444,0.397,0.41,0.307,0.394,0.544,1.02,1.02,0.919,0.971,1.03
NCI-H596,1.08,1,1.08,0.987,0.965,0.456,0.482,0.51,0.507,0.544,,,,,,1.15,1.19,1.09,1.06,0.986
NCI-H1993,0.978,1.09,0.897,0.985,1.02,0.578,0.624,,0.642,0.636,0.661,0.537,0.461,0.571,0.437,0.725,0.826,0.753,0.698,0.783
HCC-78,0.543,0.574,0.446,0.244,0.57,0.92,,,0.906,0.827,,0.444,0.413,0.467,0.435,0.61,0.495,,0.459,0.611
NCI-H2087,0.778,0.626,0.644,0.851,0.83,0.597,0.667,0.62,0.643,0.637,0.187,0.302,0.273,0.249,0.253,1.11,0.864,0.882,0.939,0.94
H3255,0.691,0.782,0.743,0.818,0.766,0.574,0.569,0.506,0.574,0.535,0.317,0.351,,0.339,0.325,0.875,1.09,0.941,0.838,0.87
NCI-H2126,1.14,1.09,1.11,1.19,1.11,0.677,0.625,0.51,0.697,0.737,0.315,0.37,0.336,0.364,0.332,0.718,0.659,0.7,0.704,0.765
LC-2-ad,0.946,1,0.941,1.02,0.993,0.255,0.276,0.296,0.31,0.282,0.569,0.569,0.472,0.367,0.341,0.849,0.833,0.774,0.867,0.865
SW 1573,1.21,0.967,1.06,0.945,1.18,0.781,0.751,0.952,0.941,0.786,0.422,0.456,0.364,0.39,0.308,0.846,0.767,0.811,0.769,0.864
EBC-1,0.528,0.479,0.539,0.511,0.612,,,,,,,,,,,0.796,0.975,0.893,0.938,0.871
HCC-15,0.959,1.1,0.964,0.994,1.03,0.209,0.218,0.255,0.219,0.236,0.824,0.797,0.716,0.718,0.672,0.881,0.919,0.872,0.832,0.899
NCI-H1650,0.232,0.192,0.207,0.192,0.207,0.378,0.373,0.327,0.479,0.401,0.361,0.301,0.27,0.36,0.486,,,,,
COR-L 105,0.688,1.14,0.739,0.692,0.746,1.27,1.01,1.18,1.1,1.16,0.409,0.4,0.378,0.411,0.413,0.711,0.985,0.574,0.944,0.988
NCI-H650,0.882,1.07,0.676,0.912,0.956,0.764,0.757,0.834,1.18,0.921,0.343,0.325,0.339,0.317,0.296,0.758,1.03,0.912,0.897,0.954
LXF-289,0.968,1.05,0.955,0.97,0.988,0.892,0.905,0.908,0.895,0.908,0.582,0.625,0.532,0.618,0.559,0.944,0.985,0.941,0.952,0.919
NCI-H1703,0.371,0.379,0.286,0.367,0.342,,,,,,,,,,,0.609,0.99,0.499,0.749,0.377
SK-MES-1,,,,,,0.957,0.952,0.85,1.07,1.04,0.34,0.305,0.379,0.39,0.298,1,1.26,1.04,1.07,1.07
NCI-H522,,,,,,0.958,0.897,0.968,0.843,1.17,0.885,0.966,1.06,1.12,0.905,,,,,
LOU-NH91,0.518,0.454,0.469,0.478,0.527,0.409,0.411,0.448,0.423,0.396,0.527,0.518,0.558,0.549,0.557,0.997,0.983,1,0.922,0.965
NCI-H1355,1.21,1.21,1.01,1.07,1.13,1.01,1,0.916,1.11,1.03,0.423,0.448,0.389,0.371,0.379,0.784,0.782,0.749,0.769,0.787

Cell Line,relative viability (Kobe2602 + Bortezomib; first compound 0.2 µM),relative viability (Kobe2602 + Bortezomib; first compound 0.6325 µM),relative viability (Kobe2602 + Bortezomib; first compound 2 µM),relative viability (Kobe2602 + Bortezomib; first compound 6.325 µM),relative viability (Kobe2602 + Bortezomib; first compound 20 µM),relative viability (Zosuquidar + Pemetrexed; first compound 0.01 µM),relative viability (Zosuquidar + Pemetrexed; first compound 0.03162 µM),relative viability (Zosuquidar + Pemetrexed; first compound 0.1 µM),relative viability (Zosuquidar + Pemetrexed; first compound 0.3162 µM),relative viability (Zosuquidar + Pemetrexed; first compound 1 µM),relative viability ([1]; first compound 0.02 µM),relative viability ([1]; first compound 0.06325 µM),relative viability ([1]; first compound 0.2 µM),relative viability ([1]; first compound 0.6325 µM),relative viability ([1]; first compound 2 µM),relative viability (Kobe2602 + Linsitinib; first compound 0.2 µM),relative viability (Kobe2602 + Linsitinib; first compound 0.6325 µM),relative viability (Kobe2602 + Linsitinib; first compound 2 µM),relative viability (Kobe2602 + Linsitinib; first compound 6.325 µM),relative viability (Kobe2602 + Linsitinib; first compound 20 µM)
NCI-H460,0.99,1.09,1.09,1.21,1.05,0.0576,0.0545,0.0685,0.0617,0.0615,0.168,0.243,0.245,0.187,0.165,0.826,0.768,0.709,0.894,0.725
NCI-H1793,,,,,,0.898,,,1.01,0.832,0.338,0.313,,0.277,0.252,0.856,0.883,0.806,0.831,0.958
NCI-H2023,0.954,0.995,0.873,0.945,0.927,0.224,0.233,0.212,0.302,0.297,0.386,0.321,0.271,0.247,0.199,0.575,0.728,0.528,0.586,0.682
NCI-H1666,0.919,0.728,,0.737,0.867,0.807,0.855,0.741,0.92,0.909,0.642,0.658,0.664,0.662,0.642,0.683,0.76,,0.713,0.76
NCI-H358,,,,,,0.189,0.173,0.173,0.167,0.154,0.112,0.138,0.163,0.135,0.135,0.684,0.77,0.771,0.758,0.732
Calu-6,1.11,1.04,0.945,0.971,0.951,,,,,,,,,,,0.911,0.975,0.897,0.954,0.895
NCI-H2342,,,,,,0.682,0.785,0.649,0.899,0.818,0.519,0.466,0.493,0.501,0.495,,,,,
ChaGo-K-1,1.04,1.09,0.788,1.06,0.946,0.266,0.255,0.263,0.266,0.26,1.05,1.05,0.906,0.899,0.871,,,,,
NCI-H1563,0.954,1.13,0.71,0.933,0.794,0.623,0.786,0.679,0.729,0.743,,,,,,1.1,1.39,1.08,1.14,1.34
NCI-H727,0.901,0.883,0.83,0.885,0.851,,,,,,0.648,0.689,0.577,0.62,0.616,0.306,0.319,0.253,0.239,0.324
NCI-H1299,1.01,0.982,0.986,1.07,0.995,,,,,,,,,,,0.887,0.979,0.961,1.03,0.945
SW 900,,,,,,0.497,0.485,,0.514,0.498,0.585,0.601,0.436,0.55,0.492,,,,,
ABC-1,0.42,0.256,0.283,0.35,0.336,,,,,,,0.734,0.707,0.855,0.654,0.609,0.984,0.722,0.876,0.735
NCI-H1648,,,,,,1.57,0.99,0.568,0.717,0.627,0.27,0.259,,0.281,0.299,,,,,
NCI-H1395,,,,,,0.718,0.983,,1,0.811,0.631,0.79,0.626,0.642,0.54,0.992,1,1.04,1.05,1.12
NCI-H1944,,,,,,0.583,0.585,0.604,0.678,0.665,0.357,0.315,0.317,0.299,0.349,1.22,1.26,1.28,1.17,1.29
NCI-H2170,,,,,,0.283,0.263,0.263,0.269,0.255,0.408,0.407,0.355,0.369,0.438,,,,,
IA-LM,,0.873,0.707,0.765,0.759,,,,,,,,,,,0.506,0.462,0.632,0.476,0.573
A549,,,,,,,,,,,,,,,,0.562,0.687,0.583,0.524,0.578
LK-2,,,,,,0.281,0.306,0.205,0.26,0.271,,0.969,0.704,0.69,0.636,0.618,0.614,0.415,0.643,0.567
